Consider 22 compounds from patent publication US20150031668A1, “CHROMAN DERIVATIVES AS TRPM8 INHIBITORS” (AMGEN INC., priority 2013, published 2015).

Structures can show the parent of a compound that is named as a salt.

T1 sequence (Q7Z2W7 whole entry): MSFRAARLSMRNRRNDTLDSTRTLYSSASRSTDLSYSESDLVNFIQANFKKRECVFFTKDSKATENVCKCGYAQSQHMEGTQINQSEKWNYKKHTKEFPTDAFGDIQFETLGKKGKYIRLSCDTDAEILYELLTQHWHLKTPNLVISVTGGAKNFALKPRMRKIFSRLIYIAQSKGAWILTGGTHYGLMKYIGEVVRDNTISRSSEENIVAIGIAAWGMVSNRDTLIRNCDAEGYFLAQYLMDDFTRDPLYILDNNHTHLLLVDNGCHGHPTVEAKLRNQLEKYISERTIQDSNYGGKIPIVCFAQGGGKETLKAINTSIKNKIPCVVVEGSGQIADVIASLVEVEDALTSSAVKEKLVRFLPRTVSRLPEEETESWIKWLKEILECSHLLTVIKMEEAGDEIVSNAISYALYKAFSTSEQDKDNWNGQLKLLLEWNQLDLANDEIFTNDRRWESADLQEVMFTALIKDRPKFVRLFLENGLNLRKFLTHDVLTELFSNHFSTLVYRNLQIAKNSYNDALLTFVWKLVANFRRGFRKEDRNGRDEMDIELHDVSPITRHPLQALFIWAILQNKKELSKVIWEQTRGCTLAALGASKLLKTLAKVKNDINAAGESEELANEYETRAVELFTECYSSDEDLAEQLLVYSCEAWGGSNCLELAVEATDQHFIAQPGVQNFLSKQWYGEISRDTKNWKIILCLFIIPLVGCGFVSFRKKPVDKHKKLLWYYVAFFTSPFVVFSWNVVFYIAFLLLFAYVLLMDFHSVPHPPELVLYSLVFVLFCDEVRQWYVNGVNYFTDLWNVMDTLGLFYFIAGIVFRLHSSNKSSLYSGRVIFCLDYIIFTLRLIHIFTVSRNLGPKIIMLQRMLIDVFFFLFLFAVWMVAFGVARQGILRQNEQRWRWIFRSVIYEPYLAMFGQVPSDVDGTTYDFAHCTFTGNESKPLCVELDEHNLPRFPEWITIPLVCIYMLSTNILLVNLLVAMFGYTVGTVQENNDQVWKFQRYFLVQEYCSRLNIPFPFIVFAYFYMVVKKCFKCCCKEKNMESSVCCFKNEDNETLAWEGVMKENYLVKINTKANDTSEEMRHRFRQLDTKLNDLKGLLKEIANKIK

This assay addresses T1, human TRPM8 (Homo sapiens, UniProt Q7Z2W7).
T1 construct: expressed in transfected cells; host or cells: Chinese hamster ovary (CHO) cells, T-REx tetracycline-inducible expression system (Invitrogen); co-transfected with pcDNA3.1 aequorin
Put plainly: Luminescence readout assay for measuring intracellular calcium (aequorin, CHO cells expressing human TRPM8; icilin, L-menthol or cold activation). It counts as cell-based. The conditions noted are these: CHO cells expressing human TRPM8, icilin activation (1 μM), aequorin luminescence; read-out: hTRPM8 IC50. As for the experimental part:
Luminescence Readout Assay for Measuring Intracellular Calcium
A stable Chinese hamster ovary cell line expressing human TRPM8 was generated using tetracycline inducible T-REx™ expression system from Invitrogen, Inc. (Carlsbad, Calif.). […] Twenty four hours before the assay, cells were seeded in 96-well plates and TRPM8 expression was induced with 0.5 μg/ml tetracycline. On the day of the assay, culture media was removed and cells were incubated with assay buffer
Potential antagonists were added 2.5 min prior to the addition of agonist, 1 μM icilin, 100 μM L-menthol, or 1 min prior to the addition of cold buffer (<10° C.). The luminescence was measured by a CCD camera based FLASH-luminometer built by Amgen, Inc. A cooling device attached to FLASH luminometer was used for cold activation.
Consider `CNC(=O)c1ccc(-c2ccc([C@@]3(NC(=O)c4ccc(F)cc4)CCOc4cccnc43)cc2)cc1` [Example 138, (S)-4′-(4-(4-fluorobenzamido)-3,4-dihydro-2H-pyrano[3,2-b]pyridin-4-yl)-N-methyl-[1,1′-biphenyl]-4-carboxamide], for which the half-inhibitory concentration (IC50) was 3160 nM.
Regarding `O=C(N[C@]1(c2ccc(Cl)c(F)c2)CCOc2cccnc21)c1ccccc1` (single isomer, unassigned) [Example 15], the IC50 is 54 nM.
Next, `COC(=O)c1ccc(C(=O)N[C@]2(c3ccc(C(F)(F)F)cc3)CCOc3cccnc32)nc1` [Example 175, (S)-methyl 6-((4-(4-(trifluoromethyl)phenyl)-3,4-dihydro-2H-pyrano[3,2-b]pyridin-4-yl)carbamoyl) nicotinate]: 43 nM.
In the case of `CS(=O)(=O)c1ccc(-c2ccc([C@@]3(NC(=O)c4ccc(F)cc4)CCOc4cccnc43)cc2)cc1` [Example 119, (S)-4-fluoro-N-(4-(4′-(methylsulfonyl)-[1,1′-biphenyl]-4-yl)-3,4-dihydro-2H-pyrano[3,2-b]pyridin-4-yl)benzamide], the IC50 is 879 nM.
Regarding `O=C(Nc1cccnc1Br)N[C@]1(c2ccc(OC(F)(F)F)c(F)c2)CCOc2cccnc21` [Example 93, (S)-1-(2-bromopyridin-3-yl)-3-(4-(3-fluoro-4-(trifluoromethoxy)phenyl)-3,4-dihydro-2H-pyrano[3,2-b]pyridin-4-yl)urea], the IC50 was found to be 22 nM.
Turning to `Cc1cc(C(=O)N[C@]2(c3ccc(C(F)(F)F)c(F)c3)CCOc3cccnc32)ccc1C(=O)O` [Example 287, (S)-4-((4-(3-fluoro-4-(trifluoromethyl)phenyl)-3,4-dihydro-2H-pyrano[3,2-b]pyridin-4-yl)carbamoyl)-2-methylbenzoic acid], the IC50 turned out to be 17 nM.
Consider `O=C(NC1(c2ccc(Cl)c(Cl)c2)CCOc2cccnc21)c1ccc(F)cc1` (stereo not shown) [Example 10, N-(4-(3,4-dichlorophenyl)-3,4-dihydro-2H-pyrano[3,2-b]pyridin-4-yl)-4-fluorobenzamide], for which the IC50 worked out at 163 nM.
Regarding `CC(O)c1ccc(C(=O)N[C@]2(c3ccc(OC(F)(F)F)c(F)c3)CCOc3cccnc32)cc1` (mixture of isomers) [Example 157, N—((S)-4-(3-fluoro-4-(trifluoromethoxy)phenyl)-3,4-dihydro-2H-pyrano[3,2-b]pyridin-4-yl)-4-((R)-1-hydroxyethyl)benzamide and N—((S)-4-(3-fluoro-4-(trifluoromethoxy)phenyl)-3,4-dihydro-2H-pyrano[3,2-b]pyridin-4-yl)-4-((S)-1-hydroxyethyl)benzamide (1:1)], the half-maximal inhibitory concentration (IC50) worked out at 12 nM.
`Cc1ccncc1-c1ccc([C@@]2(NC(=O)c3ccc(F)cc3)CCOc3cccnc32)cc1` [Example 132, (S)-4-fluoro-N-(4-(4-(4-methylpyridin-3-yl)phenyl)-3,4-dihydro-2H-pyrano[3,2-b]pyridin-4-yl)benzamide]: the IC50 came out at 216 nM.
`O=C(O)c1ccnc(C(=O)N[C@]2(c3ccc(OC(F)(F)F)c(F)c3)CCOc3cccnc32)c1` [Example 330, (S)-2-((4-(3-fluoro-4-(trifluoro-methoxy)phenyl)-3,4-dihydro-2H-pyrano[3,2-b]pyridin-4-yl)carbamoyl) isonicotinic acid]: the 50% inhibitory concentration (IC50) came out at 94 nM.
Then `Cc1ccc2[nH]c(C(=O)N[C@]3(c4ccc(OC(F)(F)F)cc4)CCOc4cccnc43)cc2c1` [Example 222, (S)-5-methyl-N-(4-(4-(trifluoromethoxy)phenyl)-3,4-dihydro-2H-pyrano[3,2-b]pyridin-4-yl)-1H-indole-2-carboxamide formate], with 2000 nM.
Next, `CNc1cc(C(=O)N[C@]2(c3ccc(OC(F)(F)F)c(F)c3)CCOc3cccnc32)cc(F)c1C(=O)O` [Example 304, (S)-2-fluoro-4-((4-(3-fluoro-4-(trifluoromethoxy)phenyl)-3,4-dihydro-2H-pyrano[3,2-b]pyridin-4-yl)carbamoyl)-6-(methylamino)benzoic acid]: 28 nM; `O=C(N[C@]1(c2ccc(OC(F)(F)F)c(F)c2)CCOc2cccnc21)c1ccc(C(=O)O)c(-c2ccccc2)c1` [Example 290, (S)-5-((4-(3-fluoro-4-(trifluoromethoxy)phenyl)-3,4-dihydro-2H-pyrano[3,2-b]pyridin-4-yl)carbamoyl)-[1,1′-biphenyl]-2-carboxylic acid]: 86 nM; `Cn1nc2c(c1C(=O)N[C@]1(c3ccc(OC(F)(F)F)cc3)CCOc3cccnc31)CCCC2` [Example 270, (S)-2-methyl-N-(4-(4-(trifluoromethoxy)phenyl)-3,4-dihydro-2H-pyrano[3,2-b]pyridin-4-yl)-4,5,6,7-tetrahydro-2H-indazole-3-carboxamide formate]: 44 nM.
On to `O=C(N[C@]1(c2ccc(OC(F)(F)F)c(F)c2)CCOc2cccnc21)N1CCC(O)CC1` [Example 102, (S)-N-(4-(3-fluoro-4-(trifluoromethoxy)phenyl)-3,4-dihydro-2H-pyrano[3,2-b]pyridin-4-yl)-4-hydroxypiperidine-1-carboxamide], for which the IC50 is 218 nM.
Then `O=C(N[C@]1(c2ccc(OC(F)(F)F)cc2)CCOc2cccnc21)c1cc2nccc(C3CC3)n2n1` [Example 224, (S)-7-cyclopropyl-N-(4-(4-(trifluoromethoxy)phenyl)-3,4-dihydro-2H-pyrano[3,2-b]pyridin-4-yl) pyrazolo[1,5-a] pyrimidine-2-carboxamide formate], with 116 nM.
In the case of `O=C(Nc1ccc(F)cc1)N[C@]1(c2ccc(C(F)(F)F)cc2)CCOc2cccnc21` [Example 74, (S)-1-(4-fluorophenyl)-3-(4-(4-(trifluoromethyl)phenyl)-3,4-dihydro-2H-pyrano[3,2-b]pyridin-4-yl)urea], the 50% inhibitory concentration (IC50) was 25 nM.
Next, `Cc1cc(C(=O)N[C@]2(c3ccc(C(F)(F)F)cc3)CCOc3cccnc32)ccc1C(=O)O` [Example 288, (S)-2-methyl-4-((4-(4-(trifluoromethyl)phenyl)-3,4-dihydro-2H-pyrano[3,2-b]pyridin-4-yl)carbamoyl)benzoic acid]: 45 nM; `CC(C)Cc1cc(C(=O)N[C@]2(c3ccc(OC(F)(F)F)c(F)c3)CCOc3cccnc32)ccc1C(=O)O` [Example 293, (S)-4-((4-(3-fluoro-4-(trifluoromethoxy)phenyl)-3,4-dihydro-2H-pyrano[3,2-b]pyridin-4-yl)carbamoyl)-2-isobutylbenzoic acid]: 7 nM; `O=C(NS(=O)(=O)c1ccccc1)c1ccc(C(=O)N[C@]2(c3ccc(OC(F)(F)F)c(F)c3)CCOc3cccnc32)nc1` [Example 307, (S)—N2-(4-(3-fluoro-4-(trifluoromethoxy)phenyl)-3,4-dihydro-2H-pyrano[3,2-b]pyridin-4-yl)-N5-(phenylsulfonyl)pyridine-2,5-dicarboxamide 2,2,2-trifluoroacetate]: 631 nM.
As to `O=C(N[C@]1(c2ccc(OC(F)(F)F)cc2)CCOc2cccnc21)c1ccsn1` [Example 232, (S)-N-(4-(4-(trifluoromethoxy)phenyl)-3,4-dihydro-2H-pyrano[3,2-b]pyridin-4-yl)isothiazole-3-carboxamide formate], the IC50 amounted to 25.8 nM.
Regarding `N#CCc1ccc([C@@]2(NC(=O)c3ccc(F)cc3)CCOc3cccnc32)cc1` [Example 111, (S)—N-(4-(4-(cyanomethyl)phenyl)-3,4-dihydro-2H-pyrano[3,2-b]pyridin-4-yl)-4-fluorobenzamide], the IC50 worked out at 1520 nM.
